Measured values from patent publication US10577349B2 (Sanford Burnham Prebys Medical Discovery Institute, priority 2015, dated 2020).

Columns and labels:
A375 = test: 48 h Cytotoxicity A375; format: cell-based; conditions: Homo sapiens, A-375
[1] = target: EmCV Cap-dependent translation; test: In vitro translation assay, FF-EmCV-Ren construct, cap-dependent (FF luciferase); format: biochemical, rabbit reticulocyte lysates
Procedure, shortened: (§1)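 In a cell-free system, lysate-driven translation of FF-IRES-Ren RNA (0.1 μg per well, 2 h, 30° C) follows 1 h compound pre-treatment at room temperature. Dual-Glo readings separate cap-dependent (FF) from IRES-mediated (Ren) output.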

[2] = target: EmCV Cap-independent translation; test: In vitro translation assay, FF-EmCV-Ren construct, cap-independent (Ren luciferase); format: biochemical, rabbit reticulocyte lysates
Procedure, shortened: as §1

[3] = target: HCV cap-dependent translation; test: In vitro translation assay, FF-HCV-Ren construct, cap-dependent (FF luciferase); format: biochemical, rabbit reticulocyte lysates
Procedure, shortened: as §1

[4] = target: HCV cap-independent translation; test: In vitro translation assay, FF-HCV-Ren construct, cap-independent (Ren luciferase); format: biochemical, rabbit reticulocyte lysates
Procedure, shortened: as §1

O=C(/C=C/c1cncc(F)c1)c1c(-c2ccc(C(F)(F)F)cc2)c2cc(Cl)ccc2[nH]c1=O [Compound 83, 3-[(2E)-3-(5-fluoro(3-pyridyl))prop-2-enoyl]-6-chloro-4-[4-(trifluoromethyl)phenyl]hydroquinolin-2-one] showed an IC50 (A375) of 2 to 10 µM, an IC50 [1] of 2 to 10 µM and an IC50 [2] of 2 to 10 µM. For the same compound, the IC50 [3] was 2 to 10 µM and the IC50 [4] was 2 to 10 µM.
With O=C(/C=C/c1ccccn1)c1c(-c2ccc(C(F)(F)F)cc2)c2cc(Cl)ccc2[nH]c1=O [Compound 84, 3-((2E)-3-(2-pyridyl)prop-2-enoyl)-6-chloro-4-[4-(trifluoromethyl)phenyl]hydroquinolin-2-one] the IC50 (A375) was < 2 µM, the IC50 [1] was 2 to 10 µM and the IC50 [2] was 2 to 10 µM. For the same compound, the IC50 [3] was 2 to 10 µM and the IC50 [4] was 2 to 10 µM.
Cc1ccc(-c2c(C(=O)/C=C/c3cncc(F)c3)c(=O)[nH]c3ccc(Cl)cc23)cc1 [Compound 85, 3-[(2E)-3-(5-fluoro(3-pyridyl))prop-2-enoyl]-6-chloro-4-(4-methylphenyl)hydroquinolin-2-one] was tested, and the IC50 (A375) was < 2 µM, the IC50 [1] was 2 to 10 µM and the IC50 [2] was 2 to 10 µM. It also gave an IC50 [3] of 2 to 10 µM and an IC50 [4] of 2 to 10 µM.
Cc1ccc(-c2c(C(=O)/C=C/c3ccccn3)c(=O)[nH]c3ccc(Cl)cc23)cc1 [Compound 86, 3-((2E)-3-(2-pyridyl)prop-2-enoyl)-6-chloro-4-(4-methylphenyl)hydroquinolin-2-one] showed an IC50 (A375) of 2 to 10 µM, an IC50 [1] of 2 to 10 µM and an IC50 [2] of 2 to 10 µM. It also gave an IC50 [3] of 2 to 10 µM and an IC50 [4] of 2 to 10 µM.
Compound O=C(/C=C/c1cncc(F)c1)c1c(-c2ccc(OC(F)(F)F)cc2)c2cc(Cl)ccc2[nH]c1=O [Compound 87, 3-[(2E)-3-(5-fluoro(3-pyridyl))prop-2-enoyl]-6-chloro-4-[4-(trifluoromethoxy)phenyl]hydroquinolin-2-one] has an IC50 (A375) of 2 to 10 µM, an IC50 [1] of 2 to 10 µM and an IC50 [2] of 2 to 10 µM. For the same compound, the IC50 [3] was 2 to 10 µM and the IC50 [4] was 2 to 10 µM.
O=C(/C=C/c1ccccn1)c1c(-c2ccc(OC(F)(F)F)cc2)c2cc(Cl)ccc2[nH]c1=O [Compound 88, 3-((2E)-3-(2-pyridyl)prop-2-enoyl)-6-chloro-4-[4-(trifluoromethoxy)phenyl]hydroquinolin-2-one] gave an IC50 (A375) of 2 to 10 µM, an IC50 [1] of 2 to 10 µM and an IC50 [2] of 2 to 10 µM. It also gave an IC50 [3] of 2 to 10 µM and an IC50 [4] of 2 to 10 µM.
N#Cc1ccc(-c2c(C(=O)/C=C/c3cncc(F)c3)c(=O)[nH]c3ccc(Cl)cc23)cc1 [Compound 89] gave an IC50 (A375) of 2 to 10 µM, an IC50 [1] of 2 to 10 µM and an IC50 [2] of 2 to 10 µM. The IC50 [3] was 2 to 10 µM and the IC50 [4] was 2 to 10 µM.
N#Cc1ccc(-c2c(C(=O)/C=C/c3ccccn3)c(=O)[nH]c3ccc(Cl)cc23)cc1 [Compound 90, 4-[3-((2E)-3-(2-pyridyl)prop-2-enoyl)-6-chloro-2-oxo-4-hydroquinolyl]benzenecarbonitrile] was tested, and the IC50 (A375) was < 2 µM, the IC50 [1] was 2 to 10 µM and the IC50 [2] was 2 to 10 µM. For the same compound, the IC50 [3] was 10 to 20 µM and the IC50 [4] was 2 to 10 µM.
Work on O=C(/C=C/c1cncc(F)c1)c1c(-c2ccc(Br)cc2)c2cc(Cl)ccc2[nH]c1=O [Compound 91, 3-[(2E)-3-(5-fluoro(3-pyridyl))prop-2-enoyl]-4-(4-bromophenyl)-6-chlorohydroquinolin-2-one] yielded an IC50 (A375) of 2 to 10 µM, an IC50 [1] of 2 to 10 µM and an IC50 [2] of 2 to 10 µM. The IC50 [3] was 2 to 10 µM and the IC50 [4] was 2 to 10 µM.
In the case of O=C(/C=C/c1ccccn1)c1c(-c2ccc(Br)cc2)c2cc(Cl)ccc2[nH]c1=O [Compound 92, 3-((2E)-3-(2-pyridyl)prop-2-enoyl)-4-(4-bromophenyl)-6-chlorohydroquinolin-2-one], the IC50 (A375) is reported as < 2 µM, the IC50 [1] is reported as 2 to 10 µM and the IC50 [2] is reported as 2 to 10 µM. It also gave an IC50 [3] of 2 to 10 µM and an IC50 [4] of 2 to 10 µM.
Cc1ccnc(-c2c(C(=O)/C=C/c3cncc(F)c3)c(=O)[nH]c3ccc(Cl)cc23)c1 [Compound 93, 3-[(2E)-3-(5-fluoro(3-pyridyl))prop-2-enoyl]-6-chloro-4-(4-methyl(2-pyridyl))hydroquinolin-2-one] was tested, and the IC50 (A375) was < 2 µM, the IC50 [1] was > 20 µM and the IC50 [2] was 10 to 20 µM. The IC50 [3] was > 20 µM and the IC50 [4] was > 20 µM.
With Cc1ccnc(-c2c(C(=O)/C=C/c3ccccn3)c(=O)[nH]c3ccc(Cl)cc23)c1 [Compound 94, 3-((2E)-3-(2-pyridyl)prop-2-enoyl)-6-chloro-4-(4-methyl(2-pyridyl))hydroquinolin-2-one] the IC50 (A375) was 2 to 10 µM, the IC50 [1] was > 20 µM and the IC50 [2] was > 20 µM. For the same compound, the IC50 [3] was > 20 µM and the IC50 [4] was > 20 µM.
Work on Cc1cncc(-c2c(C(=O)/C=C/c3ccccn3)c(=O)[nH]c3ccc(Cl)cc23)c1 [Compound 96, 3-((2E)-3-(2-pyridyl)prop-2-enoyl)-6-chloro-4-(5-methyl(3-pyridyl))hydroquinolin-2-one] yielded an IC50 (A375) of 2 to 10 µM, an IC50 [1] of 10 to 20 µM and an IC50 [2] of 2 to 10 µM. For the same compound, the IC50 [3] was > 20 µM and the IC50 [4] was 10 to 20 µM.
COc1cncc(-c2c(C(=O)/C=C/c3cncc(F)c3)c(=O)[nH]c3ccc(Cl)cc23)c1 [Compound 97, 3-[(2E)-3-(5-fluoro(3-pyridyl))prop-2-enoyl]-6-chloro-4-(5-methoxy(3-pyridyl))hydroquinolin-2-one] showed an IC50 (A375) of 2 to 10 µM, an IC50 [1] of 2 to 10 µM and an IC50 [2] of 2 to 10 µM. It also gave an IC50 [3] of 10 to 20 µM and an IC50 [4] of 2 to 10 µM.
Work on COc1cncc(-c2c(C(=O)/C=C/c3ccccn3)c(=O)[nH]c3ccc(Cl)cc23)c1 [Compound 98, 3-((2E)-3-(2-pyridyl)prop-2-enoyl)-6-chloro-4-(5-methoxy(3-pyridyl))hydroquinolin-2-one] yielded an IC50 (A375) of 2 to 10 µM, an IC50 [1] of 10 to 20 µM and an IC50 [2] of 10 to 20 µM. It also gave an IC50 [3] of 10 to 20 µM and an IC50 [4] of 10 to 20 µM.
In the case of O=C(/C=C/c1cncc(F)c1)c1c(-c2cncc(F)c2)c2cc(Cl)ccc2[nH]c1=O [Compound 99, 3-[(2E)-3-(5-fluoro(3-pyridyl))prop-2-enoyl]-6-chloro-4-(5-fluoro(3-pyridyl))hydroquinolin-2-one], the IC50 (A375) is reported as 2 to 10 µM, the IC50 [1] is reported as 10 to 20 µM and the IC50 [2] is reported as 2 to 10 µM. For the same compound, the IC50 [3] was 10 to 20 µM and the IC50 [4] was 2 to 10 µM.
With O=C(/C=C/c1ccccn1)c1c(-c2cncc(F)c2)c2cc(Cl)ccc2[nH]c1=O [Compound 100, 3-((2E)-3-(2-pyridyl)prop-2-enoyl)-6-chloro-4-(5-fluoro(3-pyridyl))hydroquinolin-2-one] the IC50 (A375) was 2 to 10 µM, the IC50 [1] was 10 to 20 µM and the IC50 [2] was 10 to 20 µM. The IC50 [3] was 10 to 20 µM and the IC50 [4] was 10 to 20 µM.
With O=C(/C=C/c1cncc(F)c1)c1c(-c2cncc(Cl)c2)c2cc(Cl)ccc2[nH]c1=O [Compound 101, 3-[(2E)-3-(5-fluoro(3-pyridyl))prop-2-enoyl]-6-chloro-4-(5-chloro(3-pyridyl))hydroquinolin-2-one] the IC50 (A375) was 2 to 10 µM, the IC50 [1] was 2 to 10 µM and the IC50 [2] was 10 to 20 µM. The IC50 [3] was 10 to 20 µM and the IC50 [4] was 10 to 20 µM.
Work on O=C(/C=C/c1ccccn1)c1c(-c2cncc(Cl)c2)c2cc(Cl)ccc2[nH]c1=O [Compound 102, 3-((2E)-3-(2-pyridyl)prop-2-enoyl)-6-chloro-4-(5-chloro(3-pyridyl))hydroquinolin-2-one] yielded an IC50 (A375) of 2 to 10 µM, an IC50 [1] of 10 to 20 µM and an IC50 [2] of 10 to 20 µM. For the same compound, the IC50 [3] was 10 to 20 µM and the IC50 [4] was 10 to 20 µM.
For O=C(/C=C/c1cncc(F)c1)c1c(-c2cncc(Br)c2)c2cc(Cl)ccc2[nH]c1=O [Compound 103, (E)-4-(5-Bromo-pyridin-3-yl)-6-chloro-3-[3-(5-fluoro-pyridin-3-yl)-acryloyl]-1H-quinolin-2-one], the IC50 (A375) was 2 to 10 µM, the IC50 [1] was 2 to 10 µM and the IC50 [2] was 2 to 10 µM. It also gave an IC50 [3] of 10 to 20 µM and an IC50 [4] of 2 to 10 µM.
For O=C(/C=C/c1ccccn1)c1c(-c2cncc(Br)c2)c2cc(Cl)ccc2[nH]c1=O [Compound 104, 3-((2E)-3-(2-pyridyl)prop-2-enoyl)-4-(5-bromo(3-pyridyl))-6-chlorohydroquinolin-2-one], the IC50 (A375) was 2 to 10 µM, the IC50 [1] was 2 to 10 µM and the IC50 [2] was 2 to 10 µM. The IC50 [3] was 10 to 20 µM and the IC50 [4] was 2 to 10 µM.
N#Cc1cncc(-c2c(C(=O)/C=C/c3cncc(F)c3)c(=O)[nH]c3ccc(Cl)cc23)c1 [Compound 105, 5-{3-[(2E)-3-(5-fluoro(3-pyridyl))prop-2-enoyl]-6-chloro-2-oxo-4-hydroquinolyl}pyridine-3-carbonitrile] was tested, and the IC50 (A375) was 2 to 10 µM, the IC50 [1] was 10 to 20 µM and the IC50 [2] was 10 to 20 µM. For the same compound, the IC50 [3] was 10 to 20 µM and the IC50 [4] was 10 to 20 µM.
N#Cc1cncc(-c2c(C(=O)/C=C/c3ccccn3)c(=O)[nH]c3ccc(Cl)cc23)c1 [Compound 106, 5-[3-((2E)-3-(2-pyridyl)prop-2-enoyl)-6-chloro-2-oxo-4-hydroquinolyl]pyridine-3-carbonitrile] was tested, and the IC50 (A375) was < 2 µM, the IC50 [1] was > 20 µM and the IC50 [2] was 10 to 20 µM. For the same compound, the IC50 [3] was > 20 µM and the IC50 [4] was 10 to 20 µM.
In the case of CCOC(=O)c1cncc(-c2c(C(=O)/C=C/c3ccccn3)c(=O)[nH]c3ccc(Cl)cc23)c1 [Compound 107, Ethyl 5-[3-((2E)-3-(2-pyridyl)prop-2-enoyl)-6-chloro-2-oxo-4-hydroquinolyl]pyridine-3-carboxylate], the IC50 (A375) is reported as 2 to 10 µM, the IC50 [1] is reported as > 20 µM and the IC50 [2] is reported as 10 to 20 µM. For the same compound, the IC50 [3] was 10 to 20 µM and the IC50 [4] was 10 to 20 µM.
Compound CN(C)c1ccc(-c2c(C(=O)/C=C/c3ccccn3)c(=O)[nH]c3ccc(Cl)cc23)cc1 [Compound 108, 3-((2E)-3-(2-pyridyl)prop-2-enoyl)-4-[4-(dimethylamino)phenyl]-6-chlorohydroquinolin-2-one] has an IC50 (A375) of 2 to 10 µM, an IC50 [1] of 2 to 10 µM and an IC50 [2] of 2 to 10 µM. The IC50 [3] was 10 to 20 µM and the IC50 [4] was 2 to 10 µM.
CN(C)c1ccc(-c2c(C(=O)/C=C/c3cncc(F)c3)c(=O)[nH]c3ccc(Cl)cc23)cc1 [Compound 109, 3-[(2E)-3-(5-fluoro(3-pyridyl))prop-2-enoyl]-4-[4-(dimethylamino)phenyl]-6-chlorohydroquinolin-2-one] gave an IC50 (A375) of 2 to 10 µM, an IC50 [1] of 2 to 10 µM and an IC50 [2] of 2 to 10 µM. It also gave an IC50 [3] of 2 to 10 µM and an IC50 [4] of 2 to 10 µM.
